This is an account of results in US9956228B2, “Method of treating acute myeloid leukemia and/or acute lymphoblastic leukemia using thienotriazolodiazepine compounds” (ONCOETHIX GMBH, priority 2014, dated 2018).

Data set [1] concerns HL60, U937 and Jurkat. The data set can be described thus: MTT assay after 72 hours, sensitive cell lines. The format is cell-based. The settings on record: Homo sapiens, 72 h exposure. On the procedure: (§1) Protein was analyzed by Western blot and qRT-PCR was performed with Fast SYBR Green on a StepOnePlus Real-Time PCR System. […] Combination Index (CI) was determined using Chou & Talalay analysis; CI<1 reflects synergy, CI=1 additivity and CI>1 reflects antagonism.
(§2) Four established human cell lines derived from acute (HL60, U937) or chronic (K562) myeloid leukemia cells, and acute lymphoblastic leukemia cells (Jurkat) were treated with increasing doses of compound (1-1). MTT assays were performed after 72 hours exposure. GI50 and Emax values were calculated with the equation for sigmoidal dose response using Prism 5.00 and cell lines were classified as sensitive or resistant.
(§3) Five established human cell lines from acute and chronic acute myeloid leukemia (HL-60, U937, K562) and acute lymphoblastic leukemia (Jurkat, MOLT-3) were used. […] At each time point, compound 1-1 extracellular and intracellular concentrations were analyzed in cell supernatant and pellets respectively, using an Ultra Performance Liquid Chromatography with tandem Mass Spectrometry (concentration range 1-250 ng/mL). […] In addition, in cell pellets protein modulation was analyzed by Western blot using commercial antibodies and qRT-PCR was performed using Fast SYBR Green on a StepOnePlus RT-PCR System.
A general note: Tetrazolium dyes change colour on reduction, which living cells bring about.

In data set [2] the test system is CMYC. The data set is described as follows: CMYC modulation (Western blot, qRT-PCR) in sensitive cell lines HL60 and Jurkat. The format is cell-based, human. The note with it: 500 nM. Here is the method:
(§4) Five established human cell lines from acute and chronic acute myeloid leukemia (HL-60, U937, K562) and acute lymphoblastic leukemia (Jurkat, MOLT-3) were used. […] For cellular PK studies, cells were seeded at 2·10^6 cells/ml and exposed to 500 nM compound 1-1 for 0, 5, 15, 30, 60, 120 and 360 minutes. At each time point, compound 1-1 extracellular and intracellular concentrations were analyzed in cell supernatant and pellets respectively, using an Ultra Performance Liquid Chromatography with tandem Mass Spectrometry (concentration range 1-250 ng/mL). Experiments were performed in quadruplicate. In addition, in cell pellets protein modulation was analyzed by Western blot using commercial antibodies and qRT-PCR was performed using Fast SYBR Green on a StepOnePlus RT-PCR System.
For orientation: A western blot detects proteins with antibodies after separation by electrophoresis.

Data set [3] deals with CMYC. The data set can be described thus: CMYC modulation (Western blot, qRT-PCR) in resistant cell line K562. The format is cell-based, human. The note with it: K562, 500 nM. On the procedure: as §4
The test system of data set [4] is other cell lines (K-562, NALM-1, CCRF-CEM, MOLT-3/-4). The data set is described as follows: MTT assay after 72 hours, other cell lines. The format is cell-based. The settings on record: Homo sapiens, 72 h exposure. Here is the method:
as §1, §2, §3

Data set [5] has as its system HL-60, U937, K562, Jurkat, MOLT-3. The data set can be described thus: cellular PK: extracellular and intracellular concentrations by UPLC-MS/MS. The format is in vitro ADME, human. The settings on record: 500 nM. Here is the method: as §4
Data set [6] is described as follows: phase Ib dose-finding study, population pharmacokinetics. The format is in vivo, human. Here is the method:
An oncology phase Ib trial of compound (1-1) was conducted by the inventors with the primary objective of investigating escalation of the dose of compound (1-1) administered to patients with acute leukemia or other hematologic malignancies. The study enrolled patients with acute leukemia or other hematologic malignancies. The patients received several active dose levels of compound (1-1) ranging from 10 mg to 160 mg according to different dosing schedules. Blood samples from 7 time points were collected from each patient over 24 hours post-administration on Day 1 for leukemia patients (“complete PK”) and 4 blood samples were collected from each patient over 8 hours post-administration for patients with other hematologic malignancies (“limited PK”). compound (1-1) plasma concentrations were measured on the basis of the blood samples using validated ultra performance liquid chromatography with tandem mass spectrometry detection with a concentration range 1-250 ng/mL. Analyses and population pharmacokinetics (PPK) modeling were performed with the nonlinear mixed effect modeling software program Monolix version 4.3. Pharmacokinetic Parameters, including absorption constant (Ka); apparent distribution volume (V/F), apparent clearance (CL/F) and lean body mass (LBM; calculated calculated considering patient sex, weight and height) were calculated.
85 patients enrolled in the phase Ib trial of compound (1-1) and were treated from January 2013 to August 2014. The patients were randomized to […]: 10 mg, 20 mg, 40 mg, 80 mg, 120 mg and 160 mg once a day dosing (QD); and 40 mg twice a day dosing (BID). Among them, 81 patients with 630 plasma concentrations (607+23 BLQ) were evaluable for PK assessment. A 1-compartment open model adequately described the total compound (1-1) concentration-time curve. […] In the PPK study, the best simulation model was obtained when LBM was considered in the analysis. A correlation between CL/F and V/F was also observed for compound (1-1).

For data set [7], the target named is T1, HDAC8 (Homo sapiens, UniProt Q9BY41).
T1 sequence (Q9BY41 1-377): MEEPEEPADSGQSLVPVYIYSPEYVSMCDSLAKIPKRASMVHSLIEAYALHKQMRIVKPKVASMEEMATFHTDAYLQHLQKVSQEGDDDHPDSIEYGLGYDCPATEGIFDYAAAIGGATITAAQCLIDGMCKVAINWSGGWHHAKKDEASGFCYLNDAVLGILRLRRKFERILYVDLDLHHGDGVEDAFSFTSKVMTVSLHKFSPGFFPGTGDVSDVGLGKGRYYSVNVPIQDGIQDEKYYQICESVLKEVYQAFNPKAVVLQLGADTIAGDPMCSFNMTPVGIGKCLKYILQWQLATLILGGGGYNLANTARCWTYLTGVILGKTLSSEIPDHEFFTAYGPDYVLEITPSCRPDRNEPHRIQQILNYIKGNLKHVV
The note with it: cited from earlier work.

[8] abbreviates: sensitive and resistant leukemic cell lines.
Where [9] appears, read: patients, PPK 1-compartment model.

What is called GI50 is the concentration giving 50% growth inhibition. Broadly, the half-life is the time needed for the level to fall by half in the phase considered. Usually Tmax stands for the time from dosing to the highest level. Consider `Cc1sc2c(c1C)C(c1ccc(Cl)cc1)=N[C@@H](CC(=O)Nc1ccc(O)cc1)c1nnc(C)n1-2` [Compound (1-1), 2-[(6S)-4-(4-chlorophenyl)-2,3,9-trimethyl-6H-thienol[3,2-f]-[1,2,4]triazolo[4,3-a][1,4]diazepin-6-yl]-N-(4-hydroxyphenyl)acetamide dihydrate], for which the GI50 in data set [1] is 230 to 384 nM. Further, the “CMYC protein and mRNA levels” value in data set [2] was “rapid downregulation”. Besides, in data set [3], the “exposure time after which CMYC mRNA levels downregulation was observed” value is given as 2 h. Moreover, in data set [4], the GI50 is ≥ 6000 nM. In data set [5] (setting [8]), the “intracellular concentration, mean” value is on record as ~15 ng/106 cells; the “intracellular concentration, range” value is listed as 3-23 ng·mL-1/106 cells; the “time to cellular uptake” value is recorded as < 5 min. Besides, in data set [5] (stable up to 6 h of incubation), the extracellular levels is ~200 ng/mL. Also, the half-life in data set [6] (human, plasma, oral, all patients, read-out: mean elimination half-life (converted)) was 5.8 h. For the same compound, the Tmax in data set [6] (human, plasma, oral, patients) is 1 to 4 h. In data set [6] (patients, 10-160 mg oral, PPK 1-compartment model), the “absorption constant Ka” value amounted to 0.74 h⁻¹. Moreover, in data set [6] (setting [9]), the “apparent clearance CL/F” value is on record as 8.45 L/h and the “apparent distribution volume V/F” value was 71.7 L.

By IC50 is commonly meant the midpoint of a concentration-inhibition curve. Take `Cc1cc(Cl)ccc1OCCCC(=O)NO` [Droxinostat, 4-(4-Chloro-2-methylphenoxy)-N-hydroxybutanamide]: the IC50 in data set [7] is 1460 nM.
